Measured values reported in publication PMC11091889, “Silver Organometallics that are Highly Potent Thioredoxin and Glutathione Reductase Inhibitors: Exploring the Correlations of Solution Chemistry with the Strong Antibacterial Effects” (ACS Infectious Diseases, 2024).
Where two headings read alike, the source gives them in different places.

Legend:
[1] = system: S. aureus MRSA (DSM 11822, ICB 25701); assay: microbe, parasite or virus in culture; assay type: cell-based, methicillin resistant S. aureus; settings: for MIC MRSA / MIC MRSA (value in brackets) / MIC: 22 h; for EC50: read-out: EC50 MRSA
Method: (§1) The antibacterial effect of the silver NHC complexes and selected ligands was evaluated in two Gram-positive [Enterococcus faecium, methicillin resistant S. aureus, (MRSA)] and in four Gram-negative (Acinetobacter baumannii, Escherichia coli, Klebsiella pneumoniae, and Pseudomonas aeruginosa) pathogenic bacterial strains using broth microdilution assays. The resulting minimal inhibitory concentrations (MICs, Table 2) and EC50 (Table S6) were determined by a curve fitting procedure. Silver nitrate (AgNO3), SSD, and various antibiotics were used as references.
The importance of the culture medium used in antibacterial assays has been pointed out for antibiotics and in particular for silver.[53]−[55] In our recent studies, tryptic soy yeast (TSY) broth has been used for growing Gram-positive bacteria. Two components thereof, tryptone and yeast extract, have been reported to affect the antibacterial activity of silver nitrate.[55] Moreover, such an effect was also observed for other media containing at least one of those components.[11],[53] […] Silver nitrate served as a reference, and three different growth media were studied, namely, Müller-Hinton Broth (MHB, commonly used for Gram-negative bacteria), TSY broth (commonly used for Gram-positive bacteria), and DMEM supplemented with 10% FCS (commonly used for growth of mammalian and human cells).
(§2) The following strains of ESKAPE panel were utilized and maintained at 37 °C in MHB (21 g/L Müller Hinton broth, pH 7.4) or TSY (30 g/L trypticase soy broth, 3 g/L yeast extract, pH 7.0–7.2) media: A. baumannii (DSM 30007, ATCC 19606), E. coli (DSM1116, ATCC 9637), K. pneumoniae (DSM 11678, ATCC33495), P. aeruginosa PA7 (DSM 24068) in MHB; E. faecium (DSM 20477, ATCC 19434), and S. aureus MRSA (DSM 11822, ICB 25701) in TSY. MIC values were determined following a standardized protocol in broth microdilution assays. The compounds and reference substances (AgNO3 and SSD) were serially diluted from 64 to 1 μg/mL. Starting inocula of 2–8 × 10^5 CFU/mL in MHB or TSY media at 37 °C were used, and serial dilutions were carried out in 96-well microtiter plates in duplicate. After incubation of the plates for 22 h at 37 °C, the absorbance at 600 nm was measured using The Spark multimode microplate reader (Tecan Trading AG). The MIC values for the tested compounds were determined in three independent experiments and presented in μM with standard errors and also in μg/mL. Amikacin (P. aeruginosa), linezolid (S. aureus), and ciprofloxacin (all other strains) served as positive controls. The MIC and EC50 values were determined by curve fitting with Sigma Plot. To determine the effect of the culture medium on the activity of silver compounds, the assay was performed using MHB, TSY, or DMEM (Gibco). To observe the effect of individual components of TSY medium, antibacterial tests were performed using MHB with addition of tryptone (17 g/L) or yeast extract (3 g/L, both were purchased from Sigma).

[2] = system: P. aeruginosa PA7 (DSM 24068); assay: microbe, parasite or virus in culture; assay type: cell-based, Pseudomonas aeruginosa; settings: for MIC P. aeruginosa / MIC P. aeruginosa (value in brackets): 22 h; for MIC: DSM24068, 22 h
Method: as §1, §2

[3] = system: A. baumannii (DSM 30007, ATCC 19606); assay: Broth microdilution antibacterial assay; assay type: cell-based, Acinetobacter baumannii; settings: for MIC A. baumannii / MIC A. baumannii (value in brackets) / MIC: 22 h; for EC50: read-out: EC50 A. baumannii
Method: as §1, §2

[4] = system: K. pneumoniae (DSM 11678, ATCC33495); assay: Broth microdilution antibacterial assay; assay type: cell-based, Klebsiella pneumoniae; settings: for MIC K. pneumoniae / MIC K. pneumoniae (value in brackets) / MIC: 22 h; for EC50: read-out: EC50 K. pneumoniae
Method: as §1, §2

[5] = system: E. coli (DSM1116, ATCC 9637); assay: microbe, parasite or virus in culture; assay type: cell-based, Escherichia coli; settings: n = 3, MHB; for MIC E. coli / MIC E. coli (value in brackets) / MIC: 22 h
Method: as §1, §2

[6] = Conductometry: molar conductivity of silver complexes in DMSO; assay type: physicochemical; settings: 1.0 mM in DMSO, calculated as monocarbene (NHC)AgX
Method: Since both the neutral monocarbene and the ionic biscarbene form of the complexes may exist in various proportions in the solution, conductometry studies were performed to reveal the dominant structure. The molar conductivity of 1.0 mM solutions of each complex in DMSO was determined after different periods up to 24 h using AgNO3 as 1:1 electrolyte reference (see Table 1). According to the literature, the expected range of molar conductivity for 1:1 electrolytes in DMSO is 35–90 S cm^2 mol^–1.[45],[46]
Conductivity measurements were performed using an Apera Instruments EC9500 conductivity meter. Solutions (as indicated, otherwise 1.0 mM) of all compounds were prepared using freshly distilled DMSO with a specific electrical conductivity of ≤3 × 10^–8 S cm^–1. The conductivities were measured at 25 ± 2 °C immediately after complete dissolution and after 24 h.

[7] = system: E. faecium (DSM 20477, ATCC 19434); assay: Broth microdilution antibacterial assay; assay type: cell-based, Enterococcus faecium; settings: for MIC E. faecium / MIC E. faecium (value in brackets) / MIC: 22 h
Method: as §1, §2

[8] = mean ± standard error, n = 3, TSY
[9] = mean ± standard error, n = 3, MHB
[10] = mean ± standard error, n = 3, MHB, read-out: EC50 P. aeruginosa
[11] = mean ± standard error, n = 3, TSY, read-out: EC50 E. faecium

Compound | MIC MRSA [1, 8] [µM] | EC50 [1, 8] [µM] | MIC MRSA (value in brackets) ([1]; n = 3, TSY) [µg/mL] | MIC P. aeruginosa [2, 9] [µM] | EC50 [2, 10] [µM] | MIC P. aeruginosa (value in brackets) ([2]; n = 3, MHB) [µg/mL] | MIC A. baumannii [3, 9] [µM] | EC50 [3, 9] [µM] | MIC A. baumannii (value in brackets) ([3]; n = 3, MHB) [µg/mL] | MIC K. pneumoniae [4, 9] [µM] | EC50 [4, 9] [µM] | MIC K. pneumoniae (value in brackets) ([4]; n = 3, MHB) [µg/mL] | EC50 ([5]; mean ± standard error) [µM] | MIC E. coli ([5]; mean ± standard error) [µM] | MIC E. coli (value in brackets) [5] [µg/mL] | Molar conductivity ΛM ([6]; 1 h after dissolution) [S cm^2 mol^–^1] | Molar conductivity ΛM ([6]; 24 h after dissolution) [S cm^2 mol^–^1] | MIC E. faecium [7, 8] [µM] | EC50 [7, 11] [µM] | MIC E. faecium (value in brackets) ([7]; n = 3, TSY) [µg/mL] | also measured
Cn1[c]([Ag][Cl])[n+](Cc2ccccn2)c2ccccc21 [1a] | 175 ± 0.0 | 146 ± 2.8 | 64 | 10.9 ± 0.0 | 5.7 ± 0.8 | 4 | 14.6 ± 3.6 | 1.7 ± 0.4 | 5 | 18.2 ± 3.6 | 8.5 ± 1.2 | 7 | 53.3 ± 8.6 | 116 ± 29 | 43 | 2.88 | 3.05 | 175 ± 0.0 | 145 ± 2.3 | 64 | –
Cn1[c](=[Ag][Br])n(Cc2ccccn2)c2ccccc21 [1b, Bromido (1-Methyl-3-(pyridin-2-ylmethyl)-benzimidazol-2-ylidene) Silver(I)] | 156 ± 0.0 | 134 ± 14 | 64 | 25.9 ± 6.5 | 10.9 ± 3.9 | 11 | 16.2 ± 3.2 | 2.6 ± 0.3 | 7 | 16.2 ± 3.2 | 10 ± 2.2 | 7 | 71.3 ± 6.7 | 103 ± 25 | 43 | 4.75 | 4.82 | 156 ± 0.0 | 129 ± 2.8 | 64 | –
CC(C)[n+]1cn(Cc2ccccn2)c2ccccc21.[Cl-] [L3a, 1-Isopropyl-3-(pyridin-2-ylmethyl)-benzimidazolium Chloride] | – | – | – | – | – | – | – | – | – | – | – | – | – | – | – | – | – | – | – | – | MIC ([1]; Staphylococcus aureus, read-out: MIC MRSA): > 250 µM; MIC ([1]; Staphylococcus aureus, read-out: MIC MRSA (value in brackets)): > 128 µg/mL; EC50 ([1]; Staphylococcus aureus): > 250 µM; MIC ([2]; Pseudomonas aeruginosa, read-out: MIC P. aeruginosa (value in brackets), n = 3, MHB, 22 h): > 128 µg/mL; MIC ([2]; Pseudomonas aeruginosa, read-out: MIC P. aeruginosa, mean ± standard error, n = 3, MHB, 22 h): > 250 µM; EC50 ([2]; Pseudomonas aeruginosa, DSM24068, read-out: EC50 P. aeruginosa, mean ± standard error, n = 3, MHB): > 250 µM; MIC ([3]; Acinetobacter baumannii, read-out: MIC A. baumannii): > 250 µM; MIC ([3]; Acinetobacter baumannii, read-out: MIC A. baumannii (value in brackets)): > 128 µg/mL; EC50 ([3]; Acinetobacter baumannii): > 250 µM; MIC ([4]; Klebsiella pneumoniae, read-out: MIC K. pneumoniae): > 250 µM; MIC ([4]; Klebsiella pneumoniae, read-out: MIC K. pneumoniae (value in brackets)): > 128 µg/mL; EC50 ([4]; Klebsiella pneumoniae): > 250 µM; EC50 ([5]; Escherichia coli, mean ± standard error): > 250 µM; MIC ([5]; Escherichia coli, mean ± standard error, read-out: MIC E. coli): > 250 µM; MIC ([5]; Escherichia coli, read-out: MIC E. coli (value in brackets)): > 128 µg/mL; MIC ([7]; Enterococcus faecium, read-out: MIC E. faecium): > 250 µM; MIC ([7]; Enterococcus faecium, read-out: MIC E. faecium (value in brackets)): > 128 µg/mL; EC50 ([7]; Enterococcus faecium, read-out: EC50 E. faecium, mean ± standard error, n = 3, TSY): > 250 µM
